Data from US20250011719A1, “NEW METHOD FOR IMPROVING QUALITY OF PLATELETS” (SHANGHAI SYNVIDA BIOTECHNOLOGY CO. LTD., priority 2021, published 2025).

Key:
[1] = test system: human apheresis platelets; test: Platelet aggregation / responsiveness to agonists of stored apheresis platelets; assay type: cell-based
Protocol: (§1) An appropriate amount of apheresis platelets was added to a 50 ml centrifuge tube (the volume should not exceed 15 ml/tube). The mouth of the 50 ml centrifuge tube was covered and fixed with a clinical platelet storage bag as a gas-permeable membrane, placed on a horizontal shaker. The speed of the shaker was determined according to the volume inside the tube, ensuring the platelets were fully shaken and fully exposed to oxygen for respiration without touching the gas-permeable membrane.
By conventional methods, using a platelet aggregation instrument, 300 μl of 3×10^8 platelets/ml and the required […] were added to the aggregation tube and incubated at 37° C. for 3 minutes after gentle stirring. A baseline was established and the changes of an aggregation curve were observed within 5 minutes.

[2] = test system: human apheresis platelets; test: Mitochondrial reactive oxygen species (Mitosox) of stored apheresis platelets; assay type: cell-based; settings: for mitochondrial reactive oxygen species levels: Dorsomorphin 2HCl 1 uM, 4 uM, AICAR 0.1 uM, 0.5 uM, 4th day of storage, vs control; for accumulation of intracellular reactive oxygen species: N-acetylcysteine 5 mM, Mesna 50 uM, glutathione 200 uM, 7th day of storage, vs control group
Protocol: as §1
Using the conventional method, 25 μl platelets were diluted in equal proportions, added with 0.1 μl Mitosox reagent (5 mM) and incubated in the dark at 37° C. for 30 minutes, with 200 μl buffer added to detect the fluorescence intensity; stained the adherent cells: after centrifugation at 600 g for 5 minutes to remove the supernatant, the cells were resuspended in 200 μl Mitosox working solution, incubated at 37° C. in the dark for 30 minutes, centrifuged at 600 g for 5 minutes, washed twice with PBS and added with 200 μl PBS for resuspending and detecting the cells.

[3] = test system: human apheresis platelets; test: Platelet apoptosis (Annexin V flow cytometry) of stored apheresis platelets; assay type: cell-based; settings: for apoptosis ratio: Dorsomorphin 2HCl 1 uM, 4 uM, AICAR 0.1 uM, 0.5 uM, 4th day of storage, vs control; for apoptosis ratio of platelets: N-acetylcysteine 5 mM, Mesna 50 uM, glutathione 200 uM, 7th day of storage, vs control group
Protocol: as §1
Platelets were sampled according to conventional methods, then the concentration of platelets was diluted to 10^8/ml with Tyrodes's Buffer. 25 μl of platelets in the experimental group and control group were added to new EP tubes. Each tube was added with 5 μl of 10×Binding Buffer, 2 μl of FITC labeled Annexin V and 18 μl of Tyrodes's Buffer to a total of 50 μl in the reaction system. After incubating at room temperature in the dark for 15 minutes, 200 μl 1×Binding Buffer was added for detection on the machine, with a tube of unlabeled platelets as a negative control. The platelets labeled with Annexin V were detected within one hour after labeling and the FITC-positive cell population was the platelets in the process of apoptosis.

[4] = test system: human apheresis platelets; test: Mitochondrial potential difference (JC1/TMRM flow cytometry) of stored apheresis platelets; assay type: cell-based
Protocol: as §1
9.1 Changes in platelet mitochondrial potential difference were detected by JC1 fluorescent dyes: A JC1 working solution was prepared according to conventional methods. Positive control platelets were treated with CCCP to reduce mitochondrial membrane potential, that is, the positive control. Sampled platelets were diluted to 10^8/ml. 25 μl of platelets was taken and added with 25 μl of JC1 working solution. After mixed and incubated at 37° C. in the dark for 30 minutes, a 200 μl of 1×JC1 staining buffer was added for detecting the fluorescence intensity on the machine. The relative ratio of red and green fluorescence was used to represent the ratio of mitochondrial depolarization.
The platelet sampling and dilution were as described above. 50 μl Tyrodes's Buffer and 0.1 μl TMRM stock solution were added to a 50 μl dilution solution, incubated at 37° C. in the dark for 30 minutes, with 500 μl Tyrodes's Buffer added for detection on the machine. The fluorescence intensity of TMRM will red shift according to the change of mitochondrial potential difference. The fluorescence intensity was used to represent the level of mitochondrial potential difference.

[5] = test system: human apheresis platelets; test: Storage quality of human apheresis platelets at room temperature; assay type: cell-based; settings: summary statement of the results of the examples; substance used individually
Protocol: as §1
This method can simulate the storage of clinical apheresis platelets in a laboratory environment and can be used for sampling and the sampling is completed. The collected apheresis platelet samples can be used for platelet counting, flow cytometry index detection, protein collection, platelet viability detection, ATP content detection and other purposes.

mouse platelets [6] = test: Mouse ITP model (anti-CD42b antibody R300); assay type: in vivo, mice; settings: intravenous, combination 1 μmol NMN, 10 μmol NAC, 8 nmol AMPKi, vs control group
Protocol: WT mice were intravenously injected with NMN, NAC, AMPK inhibitor, or NMN+NAC+AMPK inhibitor. After 30 minutes, basal platelet counts were first determined from complete blood counts using a HEMAVET automated hematology analyzer. Mouse platelets were cleared by intravenous injection of 2 μg anti-CD42b monoclonal antibody R300 (purchased from Emfret). Orbital blood was collected at different time points to monitor platelet clearance and recovery.
To evaluate the effects of NMN, NAC or AMPK inhibitor on platelet survival in ITP patients, an ITP mouse model was established by intravenous injection of a low dose of anti-CD42b antibody R300.

stored mouse platelets = test: Transfusion of stored mouse PRP into WT mice; assay type: in vivo; settings: mouse PRP stored in vitro 1 day with NMN 0.5 mM, NAC 5 mM, AMPKi 4 uM alone or combined; biotin-labeled, infused into WT mice; PBS control
Protocol: (§2) Blood was taken from the abdominal aorta of mice. Apyrase (in a final concentration of 1 U/ml) and PGE1 (in a final concentration of 0.1 μg/ml) that can inhibit platelet aggregation was then added with to the whole blood, mixed quickly and centrifuged (1050 rpm, room temperature, 10 minutes). After two centrifuges, the upper plasma of the experimental group was sucked out, discarded and the platelet precipitate at the bottom was retained. The plasma of wild-type mice was evenly distributed to the platelet pellets of mice in the experimental group and wild-type group. The platelets were uniformly dispersed and suspended, and then preserved according to the method of human platelets.
In platelet transfusions, it is undesirable for stored platelets to be rapidly cleared from circulation. To evaluate the effects of the above compounds on the quality of platelets stored in vivo, two mouse transfusion models were used. In the first model, stored human platelets were transfused into immunodeficient NCG (NOD-Prkdcem26Cd52Il2rgem 26Cd22/NjuCrl) mice. NMN+NAC+AMPKi (NMN 0.5 mM, NAC 5 mM, AMPKi 4 uM) or PBS as a control was added. Human platelet concentrates were stored for 6 days in vitro. They were then labeled with biotin and infused into NCG mice. […] However, platelet clearance was lower in the NMN+NAC+AMPKi group compared to the control group (FIG. 8B). In another group of models, mouse PRP was stored in vitro for 1 day, added with NMN, NAC, AMPK inhibitor or NMN+NAC+AMPK inhibitor (NMN 0.5 mM, NAC 5 mM, AMPKi 4 uM) or PBS as a control. They were then labeled with biotin and infused into WT mice.

mouse platelets [7] = test: Storage of mouse platelet-rich plasma with added palmitoyl carnitine; assay type: cell-based, mice; settings: palmitoyl carnitine 2 μM and 10 μM; days 1 and 2 of storage; concentration-dependent trend
Protocol: as §2, with “platelets. Whole blood was obtained from wild-type rats and wild-type mice via abdominal aortic puncture, and platelet-rich plasmas (PRP) were prepared separately for rats and mice. Platelet storage experiments were conducted, with two additional experimental groups each receiving the addition of palmitoyl carnitine at different concentrations (2 μM and 10 μM). Platelet apoptosis ratio, mitochondrial ROS level and changes in mitochondrial membrane potential were measured during storage days 0-4.” for “platelets.”

[8] = test system: 293T cells stably transfected with CPT2, CPT2K79Q or CPT2K79R; test: Electron microscopy of mitochondria in CPT2 and CPT2 mutant stable transfected cell lines treated with palmitoylcarnitine; assay type: cell-based; settings: 4 hours
Description: A plasmid of pLVX-IRES-ZsGreen1 inserted with CPT2K79R, a plasmid of pLVX-IRES-ZsGreen1 inserted with CPT2K79Q, and a plasmid of pLVX-IRES-ZsGreen1 inserted with CPT2 were synthesized by Shanghai Sunny Biotechnology Co., Ltd. Lentiviral transfection, 293T cell infection, and stably transfected cell lines were all carried out by conventional methods.
To further verify the correlation between CPT2K79 acetylation and the accumulation of acylcarnitine, three plasmids were constructed: wild-type CPT2, CPT2K79R mutation, and CPT2K79Q mutation. These three plasmids were packaged into lentiviruses using a three-plasmid system for infecting 293T cells. The exogenous genes were integrated into the host genome, and […] stable transfected cell lines were selected through flow cytometry sorting. CPT2K79R is a CPT2 molecule with the mutation of lysine at position 79 to arginine, abolishing acetylation at position 79. CPT2K79Q is a CPT2 molecule with the mutation of lysine at position 79 to glutamine, simulating acetylation at position 79.
After treating CPT2 and CPT2 mutant stable transfected cell lines with acylcarnitine for 4 hours, the cells were fixed. Then electron microscopy was used to observe the status and structure of mitochondria in different cell lines treated with or without palmitoylcarnitine. […] In one embodiment, there were anomalies in the morphology and arrangement of mitochondrial cristae, and the cristae became disarrayed, fragmented and blurred, with bright areas appearing in the center of the mitochondria, indicating severe damage to the mitochondrial inner membrane structure.

rat platelets = test: Storage of rat platelet-rich plasma with added palmitoyl carnitine; assay type: cell-based, rats; settings: palmitoyl carnitine 2 μM and 10 μM; days 1 and 2 of storage
Protocol: Whole blood was obtained from wild-type rats and wild-type mice via abdominal aortic puncture, and platelet-rich plasmas (PRP) were prepared separately for rats and mice. Platelet storage experiments were conducted, with two additional experimental groups each receiving the addition of palmitoyl carnitine at different concentrations (2 μM and 10 μM). Platelet apoptosis ratio, mitochondrial ROS level and changes in mitochondrial membrane potential were measured during storage days 0-4.

[9] = Dorsomorphin 2HCl 1 uM, 4 uM, AICAR 0.1 uM, 0.5 uM, 4th day of storage, vs control
[10] = N-acetylcysteine 5 mM, Mesna 50 uM, glutathione 200 uM, 7th day of storage
[11] = added to freshly isolated platelets, second day of platelet storage, compared to the control group

NC(=O)c1ncn([C@@H]2O[C@H](CO)[C@@H](O)[C@H]2O)c1N [AICAR]
platelet responsiveness to stimuli [1, 9]: detrimental | mitochondrial reactive oxygen species levels [2]: elevation | apoptosis ratio [3]: increased | mitochondrial membrane potential [4, 9]: significant decrease

Cl.Cl.c1cc(-c2cnn3cc(-c4ccc(OCCN5CCCCC5)cc4)cnc23)ccn1 [Dorsomorphin 2HCl]
quality of platelets [5]: significantly improved | platelet survival rate (mouse platelets [6]): higher | recovery rate of platelet counts (mouse platelets [6]): higher | platelet responsiveness to stimuli [1, 9]: varying degrees of improvement | mitochondrial reactive oxygen species levels [2]: varying degrees of improvement | apoptosis ratio [3]: varying degrees of improvement | mitochondrial membrane potential [4, 9]: varying degrees of improvement | survival in vivo of stored platelets (stored mouse platelets): better than controls

O=S(=O)([O-])CCS.[Na+] [Mesna, sodium 2-mercaptoethane sulfonate]
platelet responsiveness to stimuli [1, 10]: protected | accumulation of intracellular reactive oxygen species [2]: reduce | apoptosis ratio of platelets [3]: lower | mitochondrial membrane potential [4, 10]: protected

CC(=O)N[C@@H](CS)C(=O)O [N-acetylcysteine]
quality of platelets [5]: significantly improved | platelet survival rate (mouse platelets [6]): higher | recovery rate of platelet counts (mouse platelets [6]): higher | platelet responsiveness to stimuli [1, 10]: protected | accumulation of intracellular reactive oxygen species [2]: reduce | apoptosis ratio of platelets [3]: lower | mitochondrial membrane potential [4, 10]: protected | survival in vivo of stored platelets (stored mouse platelets): better than controls

NC(=O)c1cccnc1 [NAM, nicotinamide]
quality of platelets [5]: significantly improve

NC(=O)c1ccc[n+]([C@@H]2O[C@H](COP(=O)([O-])O)[C@@H](O)[C@H]2O)c1 [NMN, nicotinamide mononucleotide]
quality of platelets [5]: significantly improved | platelet survival rate (mouse platelets [6]): higher | recovery rate of platelet counts (mouse platelets [6]): higher | survival in vivo of stored platelets (stored mouse platelets): better than controls

NC(=O)c1ccc[n+]([C@@H]2O[C@H](CO)[C@@H](O)[C@H]2O)c1 [NR, nicotinamide riboside]
quality of platelets [5]: significantly improve

OC(CNc1ccccc1)Cn1c2ccc(Br)cc2c2cc(Br)ccc21 (centres unmarked) [P7C3]
quality of platelets [5]: significantly improve

O=C(NCc1ccncc1)Nc1ccc(S(=O)(=O)N2CC3CCC(C2)O3)cc1 [SBI-797812]
quality of platelets [5]: significantly improve

N[C@@H](CCC(=O)N[C@@H](CS)C(=O)NCC(=O)O)C(=O)O [glutathione]
platelet responsiveness to stimuli [1, 10]: protected | accumulation of intracellular reactive oxygen species [2]: reduce | apoptosis ratio of platelets [3]: lower | mitochondrial membrane potential [4, 10]: protected

CCCCCCCCCCCCCCCC(=O)OC(CC(=O)[O-])C[N+](C)(C)C (centres unmarked) [palmitoylcarnitine]
levels of mitochondrial reactive oxygen species [2, 11]: higher | apoptosis rates [3, 11]: higher | mitochondrial membrane potential [4, 11]: lower | status of mouse platelets (mouse platelets [7]): effectively reduced | effect on the mitochondrial status ([8]; CPT2K79Q cell line, low concentrations of palmitoylcarnitine): particularly pronounced | effect on the mitochondrial status ([8]; CPT2K79R cell line, low-dose palmitoylcarnitine): little effect | mitochondria (electron microscopy) ([8]; three cell lines, low concentrations of palmitoylcarnitine, vs group without palmitoylcarnitine): significantly worse | status of rat platelets (rat platelets): did not cause significant changes
